Assay results: BindingDB's records for doi:10.1021/jm00046a008 (University of Alabama At Birmingham, 1994)

Biological target: Carnitine O-acetyltransferase (Columba livia)
Experiment: Tested against pigeon breast carnitine acyltransferase

| Compound | Ki [mM] |
| --- | --- |
| CC(=O)NC(CC(=O)[O-])C[N+](C)(C)C (configuration not stated) [(2-Acetylamino-3-carboxy-propyl)-trimethyl-ammonium] | 0.024 |
| CC(=O)NC(CC(=O)O)CC(C)(C)C (configuration not stated) [3-Acetylamino-5,5-dimethyl-hexanoic acid anion] | 25 |
